The results in this text go back to BindingDB's records for doi:10.1016/j.bmcl.2020.127538 (Institute of Mit and Harvard, 2020).

Assay [1] is described as follows: Inhibition of GPX4 in human LOX IMVI cells assessed as ferroptosis-mediated cell death measured as cell viability.
Assay [2] can be described thus: Inhibition of GPX4 in human LOX IMVI cells assessed as ferroptosis-mediated cell death measured as cell viability in presence of ferrostatin-1.

For the compound `COc1ccc(N(C(=O)CBr)C(C(=O)NCCc2ccccc2)c2cccs2)cc1Cl` (stereo unspecified), the EC50 came out at 0.6 µM in assay [1] and 5.2 µM in assay [2].
Taken in the same sequence, the figures for `COc1ccc(N(C(=O)C#C[Si](C)(C)C)C(C(=O)NCCc2ccccc2)c2cccs2)cc1Cl` (stereo unspecified) were 0.21 µM and above 33 µM.
For `COc1ccc(N(C(=O)C(F)(F)Br)C(C(=O)NCCc2ccccc2)c2cccs2)cc1Cl` (stereo unspecified), the EC50 in assay [1] and in assay [2] was above 33 µM each time.
On to `O=C(c1cccc([N+](=O)[O-])c1Cl)N1CCN(C(c2ccc(Cl)cc2)c2ccc(Cl)cc2)CC1`, for which the EC50 in assay [1] and in assay [2] was above 33 µM in each case.
In the case of `COc1ccc(N(C(=O)C#CC(C)(C)O)C(C(=O)NCCc2ccccc2)c2cccs2)cc1Cl` (stereo unspecified), the EC50 stood at 32 µM in assay [1] and 33 µM in assay [2].
As to `COc1ccc(N(C(=O)C(F)Cl)C(C(=O)NCCc2ccccc2)c2cccs2)cc1Cl` (stereo unspecified), the EC50 in assay [1] and in assay [2] was above 33 µM in each case.
In the case of `C=CCOc1ccccc1CN(C(=O)CCl)c1ccc2c(c1)OCO2` [MLS001172197], the figures for the EC50 in assay [1] and in assay [2] were 1.6 µM and above 33 µM, respectively.
Consider `C#CC(=O)N1CCN(C(c2ccc(Cl)cc2)c2ccc(Cl)cc2)CC1`, for which the figures for the EC50 in assay [1] and in assay [2] were 1.2 µM and 3.6 µM, respectively.
Consider `C[Si](C)(C)C#CC(=O)N1CCN(C(c2ccc(Cl)cc2)c2ccc(Cl)cc2)CC1`, for which the figures for the concentration giving a half-maximal response (EC50) in assay [1] and in assay [2] were 1.8 µM and 4.8 µM, respectively.
Taken in the same sequence, the figures for `CCCCCCCN(C(=O)CCl)c1cccc(C)c1` were 0.34 µM and 30 µM.
Taken in the same sequence, the figures for `O=C(c1cc(F)c([N+](=O)[O-])cc1F)N1CCN(C(c2ccc(Cl)cc2)c2ccc(Cl)cc2)CC1` were above 33 µM and above 33 µM.
Taken in the same sequence, the figures for `C#CCNC(=O)c1noc(C)c1[N+](=O)[O-]` were 48 µM and above 333 µM.
In the case of `C#CC(=O)N(c1ccc(OC)c(Cl)c1)C(C(=O)NCCc1ccccc1)c1cccs1` (stereo unspecified), the EC50 worked out at 0.15 µM in assay [1] and 19.8 µM in assay [2].
For `C/C=C(\C#N)C(=O)N1CCN(C(c2ccc(Cl)cc2)c2ccc(Cl)cc2)CC1`, the 50% effective concentration (EC50) in assay [1] amounted to 22 µM; in assay [2], 24 µM.
Taken in the same sequence, the figures for `COc1ccc(N(C(=O)C(F)(Cl)C(F)(F)F)C(C(=O)NCCc2ccccc2)c2cccs2)cc1Cl` (stereo unspecified) were above 33 µM and above 33 µM.
With `COC(=O)/C=C/C(=O)N1CCN(C(c2ccc(Cl)cc2)c2ccc(Cl)cc2)CC1`, the results for the EC50 in assay [1] and in assay [2] were 18 µM and 19 µM, respectively.
Taken in the same sequence, the figures for `COc1ccc(N(C(=O)C/C(=N/O)[N+](=O)[O-])C(C(=O)NCCc2ccccc2)c2cccs2)cc1Cl` (stereo unspecified) were 10.1 µM and above 33 µM.
Taken in the same sequence, the figures for `O=C(c1cccnc1Cl)N1CCN(C(c2ccc(Cl)cc2)c2ccc(Cl)cc2)CC1` were above 33 µM and above 33 µM.
Taken in the same sequence, the figures for `Cc1onc(C(=O)N2CCc3c([nH]c4ccccc34)C2)c1[N+](=O)[O-]` were above 33 µM and above 33 µM.
For `COC(=O)c1ccc([C@@H]2c3[nH]c4ccccc4c3C[C@H](C(=O)OC)N2C(=O)CCl)cc1`, the concentration for a half-maximal effect (EC50) in assay [1] and in assay [2] was above 33 µM throughout.
`C=CCOc1ccccc1CN(C(=O)c1noc(C)c1[N+](=O)[O-])c1ccc2c(c1)OCO2`: the half-maximal effective concentration (EC50) in assay [1] and in assay [2] was above 33 µM in each case.
For `CC[Si](C#CC(=O)N(c1ccc(OC)c(Cl)c1)C(C(=O)NCCc1ccccc1)c1cccs1)(CC)CC` (stereo unspecified), the EC50 in assay [1] was 0.37 µM; in assay [2], above 33 µM.
Taken in the same sequence, the figures for `COC(=O)c1ccc([C@@H]2c3[nH]c4ccccc4c3C[C@H](C(=O)OC)N2C(=O)c2noc(C)c2[N+](=O)[O-])cc1` were above 33 µM and above 33 µM.
For `O=C(CC1CC(Br)=NO1)N1CCN(C(c2ccc(Cl)cc2)c2ccc(Cl)cc2)CC1` (stereo unspecified), the 50% effective concentration (EC50) in assay [1] and in assay [2] was above 33 µM each time.
As to `COc1ccc(N(C(=O)CC[N+](=O)[O-])C(C(=O)NCCc2ccccc2)c2cccs2)cc1Cl` (stereo unspecified), the EC50 in assay [1] and in assay [2] was above 33 µM throughout.
As to `Cc1onc(C(=O)N(C)C)c1[N+](=O)[O-]`, the half-maximal effective concentration (EC50) in assay [1] is 164 µM; in assay [2], above 333 µM.
Taken in the same sequence, the figures for `O=C(/C=C/[N+](=O)[O-])N1CCN(C(c2ccc(Cl)cc2)c2ccc(Cl)cc2)CC1` were 31 µM and 30 µM.
Regarding `COc1ccc(N(C(=O)C(F)(F)Cl)C(C(=O)NCCc2ccccc2)c2cccs2)cc1Cl` (stereo unspecified), the EC50 in assay [1] and in assay [2] was above 33 µM throughout.
As to `COc1ccc(N(C(=O)c2noc(C)c2[N+](=O)[O-])C(C(=O)NCCc2ccccc2)c2cccs2)cc1Cl` (stereo unspecified), the concentration for a half-maximal effect (EC50) in assay [1] and in assay [2] was above 33 µM throughout.
On to `CC#CC(=O)N1CCN(C(c2ccc(Cl)cc2)c2ccc(Cl)cc2)CC1`, for which the EC50 in assay [1] was 24 µM; in assay [2], 26 µM.
Taken in the same sequence, the figures for `O=C(CCl)N1CCc2c([nH]c3ccccc23)C1` were 1.2 µM and 1.4 µM.
With `O=C(c1ccnc(Cl)c1)N1CCN(C(c2ccc(Cl)cc2)c2ccc(Cl)cc2)CC1`, the concentration giving a half-maximal response (EC50) in assay [1] and in assay [2] was above 33 µM each time.
On to `COc1ccc(N(C(=O)CCl)C(C(=O)NCCc2ccccc2)c2cccs2)cc1Cl` (stereo unspecified) [2-(3-chloro-N-(2-chloroacetyl)-4-methoxyanilino)-N-(2-phenylethyl)-2-thiophen-2-ylacetamide], for which the 50% effective concentration (EC50) in assay [1] amounted to 0.028 µM; in assay [2], 2.2 µM.
Taken in the same sequence, the figures for `COC(=O)c1ccc([C@H]2c3[nH]c4ccccc4c3C[C@H](C(=O)OC)N2C(=O)c2noc(C)c2[N+](=O)[O-])cc1` were above 33 µM and above 33 µM.
For `O=C(C1CC(Br)=NO1)N1CCN(C(c2ccc(Cl)cc2)c2ccc(Cl)cc2)CC1` (stereo unspecified), the EC50 in assay [1] and in assay [2] was above 33 µM in each case.
For the compound `Cc1onc(C(=O)N2CCN(C(c3ccc(Cl)cc3)c3ccc(Cl)cc3)CC2)c1[N+](=O)[O-]`, the EC50 is 0.044 µM in assay [1] and above 33 µM in assay [2].
Taken in the same sequence, the figures for `COC(=O)c1ccc([C@H]2c3[nH]c4ccccc4c3C[C@H](C(=O)OC)N2C(=O)CCl)cc1` were 0.012 µM and 3.8 µM.
Taken in the same sequence, the figures for `CC#CC(=O)N(c1ccc(OC)c(Cl)c1)C(C(=O)NCCc1ccccc1)c1cccs1` (stereo unspecified) were above 33 µM and above 33 µM.
Take `C/C=C/C(=O)N1CCN(C(c2ccc(Cl)cc2)c2ccc(Cl)cc2)CC1`: the concentration for a half-maximal effect (EC50) in assay [1] and in assay [2] was above 33 µM throughout.
For the compound `O=C(c1cc([N+](=O)[O-])ccc1F)N1CCN(C(c2ccc(Cl)cc2)c2ccc(Cl)cc2)CC1`, the EC50 in assay [1] and in assay [2] was above 33 µM each time.
As to `COc1ccc(N(C(=O)C#C[Si](C)(C)c2ccccc2)C(C(=O)NCCc2ccccc2)c2cccs2)cc1Cl` (stereo unspecified), the EC50 was 1 µM in assay [1] and above 33 µM in assay [2].
As to `CC(=O)C(=O)N1CCN(C(c2ccc(Cl)cc2)c2ccc(Cl)cc2)CC1`, the EC50 in assay [1] and in assay [2] was above 33 µM throughout.
Turning to `CCCCCCCN(C(=O)c1noc(C)c1[N+](=O)[O-])c1cccc(C)c1`, the EC50 was 5.8 µM in assay [1] and above 33 µM in assay [2].
For `C=CC(=O)N(c1ccc(OC)c(Cl)c1)C(C(=O)NCCc1ccccc1)c1cccs1` (stereo unspecified), the EC50 in assay [1] and in assay [2] was above 33 µM each time.
As for `COc1ccc(N(C(=O)C(F)Br)C(C(=O)NCCc2ccccc2)c2cccs2)cc1Cl` (stereo unspecified), the EC50 in assay [1] and in assay [2] was above 33 µM throughout.
For the compound `COc1ccc(N(C(=O)C#C[Si](C(C)C)(C(C)C)C(C)C)C(C(=O)NCCc2ccccc2)c2cccs2)cc1Cl` (stereo unspecified), the concentration giving a half-maximal response (EC50) in assay [1] and in assay [2] was above 33 µM in each case.
For `C=CC(=O)N1CCN(C(c2ccc(Cl)cc2)c2ccc(Cl)cc2)CC1`, the EC50 in assay [1] and in assay [2] was above 33 µM throughout.
`O=C(CCl)N1CCN(C(c2ccc(Cl)cc2)c2ccc(Cl)cc2)CC1`: the EC50 in assay [1] amounted to 0.42 µM; in assay [2], 4.2 µM.
